Data: PubChem BioAssay (NCI)
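Cultured in 96-well plates, cells were exposed to test compound for 48 hours across five concentrations. At the TGI there is no net growth.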

Columns and labels:
Experiment in all cases: DTP human tumour cell line panel, 48 h
[1] = system: NCI-H23 lung
[2] = system: HOP-92 NSCLC
[3] = system: EKVX NSCLC
[4] = system: SK-MEL-2 melanoma
[5] = system: UO-31 renal
[6] = system: IGROV1 ovarian
[7] = system: LOX IMVI melanoma
[8] = system: HL-60(TB) leukemia
[9] = system: HT29 colon
[10] = system: MOLT-4 leukemia
[11] = system: SK-MEL-28 melanoma
[12] = system: HCT-15 colon
[13] = system: SK-OV-3 ovarian
[14] = system: 786-0 renal
[15] = system: HCT-116 colon
[16] = system: SR leukemia
[17] = system: RXF 393 renal
[18] = system: M19-MEL melanoma
[19] = system: MDA-MB-435
[20] = system: NCI/ADR-RES ovarian

Structure (SMILES)	TGI [1]	TGI [2]	TGI [3]	TGI [4]	TGI [5]	TGI [6]	TGI [7]	TGI [8]	TGI [9]	TGI [10]	TGI [11]	TGI [12]	TGI [13]	TGI [14]	TGI [15]	TGI [16]	TGI [17]	TGI [18]	TGI [19]	TGI [20]
Cc1csc(=S)n1OC(=O)NC1CCCCC1	> 47.3 µM	> 100 µM	> 100 µM	> 100 µM	> 100 µM	> 100 µM	> 100 µM	56.5 µM	> 95.5 µM	> 29.4 µM	> 69.7 µM	> 100 µM	> 100 µM	> 50 µM	96.8 µM	47.3 µM	> 100 µM	> 56.6 µM	–	–
COc1cc(Cn2c3ccccc3c3cc(C)c4c(c32)C=CC(C)(CCC=C(C)C)O4)cc2c1[nH]c1ccccc12 (centres undefined)	> 100 µM	> 100 µM	> 100 µM	> 100 µM	> 100 µM	> 100 µM	> 100 µM	> 100 µM	> 100 µM	> 100 µM	> 100 µM	> 100 µM	> 100 µM	> 100 µM	> 100 µM	> 100 µM	> 100 µM	> 100 µM	–	–
NC(=O)N=C(N(Cc1ccccc1)Cc1ccccc1)N(Cc1ccccc1)Cc1ccccc1	> 100 µM	> 64.8 µM	> 100 µM	> 100 µM	> 100 µM	> 100 µM	> 100 µM	–	> 100 µM	> 100 µM	> 100 µM	> 100 µM	> 100 µM	> 100 µM	> 100 µM	> 100 µM	> 100 µM	> 100 µM	> 100 µM	> 100 µM
O=C(CSc1nnc(-c2ccc(N=Cc3ccc(Cl)cc3)cc2)o1)Nc1ccc(Cl)cc1Cl	59.3 µM	50.5 µM	> 100 µM	47.3 µM	98.7 µM	58.7 µM	–	> 100 µM	60.5 µM	66 µM	74.6 µM	52.8 µM	76.7 µM	51.8 µM	38.1 µM	–	> 100 µM	88.5 µM	–	–
Nn1c(NNC(=O)C(=O)Nc2cc(Cl)c(Cl)cc2Cl)n[nH]c1=S	> 100 µM	> 100 µM	> 100 µM	–	> 100 µM	> 100 µM	> 100 µM	–	> 100 µM	–	> 100 µM	> 100 µM	> 100 µM	> 100 µM	> 100 µM	–	> 100 µM	> 100 µM	–	–
O=C(CCC(NC(=O)OCc1ccccc1)C(=O)OCc1ccccc1)Nc1ccc(OCc2ccccc2)cc1 (centres undefined)	> 31.6 µM	> 31.6 µM	> 31.6 µM	> 10 µM	> 10 µM	> 31.6 µM	> 31.6 µM	> 31.6 µM	> 31.6 µM	> 31.6 µM	> 31.6 µM	26.3 µM	> 31.6 µM	17.4 µM	17.1 µM	> 31.6 µM	> 31.6 µM	–	> 31.6 µM	> 31.6 µM
CC1(C)C(=NNC(=O)C[N+](C)(C)C)C(C)(C)C1=NNC(=O)C[N+](C)(C)C	> 100 µM	> 100 µM	> 100 µM	> 100 µM	> 100 µM	> 100 µM	> 100 µM	> 100 µM	> 100 µM	> 100 µM	> 100 µM	> 100 µM	> 100 µM	> 100 µM	> 100 µM	> 100 µM	> 100 µM	> 100 µM	–	–
C[C@H](OCc1ccccc1)C(=O)N1CCS(=O)(=O)N2CCC[C@H]2C1=O	> 100 µM	> 100 µM	> 100 µM	–	> 100 µM	> 100 µM	> 100 µM	> 100 µM	> 100 µM	> 100 µM	> 100 µM	> 100 µM	> 100 µM	> 100 µM	> 100 µM	> 100 µM	> 100 µM	> 100 µM	–	–
